Data: patent US20250186541A1, “DLL3 TARGETING PEPTIDES AND CONSTRUCTS THEREOF” (MARIANA ONCOLOGY INC., priority 2023, published 2025)
Numbered stars: 1 amine (or outer) side, 2 acyl side, 3 side chain; on linkers, the order of the positions; unused ones are H or OH. Bridge positions count the residues as written; N and C are the ends. Square brackets hold non-standard residues; d marks the D form. Peptide text beside a SMILES is read from it. * marks the point of attachment. Ala(piperidin-4-yl) = O=C([C@H](CC1CCN([*:3])CC1)N[*:1])[*:2]; DOTA = O=C(O)CN1CCN(CC(=O)O)CCN(CC(=O)*)CCN(CC(=O)O)CC1; Trp(7-Me) = Cc1cccc2c(C[C@H](N)C(=O)O)c[nH]c12; Phe(4-CH2NH2) = NCc1ccc(C[C@H](N)C(=O)O)cc1; 1Nal = N[C@@H](Cc1cccc2ccccc12)C(=O)O; 2Nal = N[C@@H](Cc1ccc2ccccc2c1)C(=O)O; NMetBuAla = CN[C@@H](CC(C)(C)C)C(=O)O; NMeChg = CN[C@H](C(=O)O)C1CCCCC1; tBuAla = CC(C)(C)C[C@H](N)C(=O)O; AllylGly = C=CC[C@H](N)C(=O)O; Chg = N[C@H](C(=O)O)C1CCCCC1; αMeP = C[C@@]1(C(=O)O)CCCN1; Ahx = NCCCCCC(=O)O

Molecular target: T1, human DLL3 (Homo sapiens, UniProt Q9NYJ7)
T1 construct: biotin (biotinylated)
T1 sequence (Q9NYJ7 27-618): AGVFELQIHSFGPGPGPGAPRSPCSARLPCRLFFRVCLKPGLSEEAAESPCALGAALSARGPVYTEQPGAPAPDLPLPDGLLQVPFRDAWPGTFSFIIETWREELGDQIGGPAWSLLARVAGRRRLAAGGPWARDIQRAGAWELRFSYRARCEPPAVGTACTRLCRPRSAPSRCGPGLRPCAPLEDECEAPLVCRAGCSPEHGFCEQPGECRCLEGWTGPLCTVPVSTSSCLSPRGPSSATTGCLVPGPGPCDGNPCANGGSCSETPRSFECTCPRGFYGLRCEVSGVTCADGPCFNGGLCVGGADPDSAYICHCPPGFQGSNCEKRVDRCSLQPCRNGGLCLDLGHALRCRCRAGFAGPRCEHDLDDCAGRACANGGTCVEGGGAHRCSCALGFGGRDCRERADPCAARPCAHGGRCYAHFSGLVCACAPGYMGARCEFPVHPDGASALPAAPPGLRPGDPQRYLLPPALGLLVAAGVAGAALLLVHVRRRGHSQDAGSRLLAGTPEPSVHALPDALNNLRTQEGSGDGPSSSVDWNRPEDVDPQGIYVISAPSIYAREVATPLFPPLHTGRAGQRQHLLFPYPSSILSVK
Assay: Affinity determination by Surface Plasmon Resonance (SPR), Biacore, 1:1 binding model
Conditions: biotinylated human DLL3 on streptavidin chip, 25° C.; NB = nonbinding
In short: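 SPR with biotinylated human DLL3 captured on a streptavidin chip, with a reference surface subtracted. Samples were injected at several concentrations at 100 μL/min in phosphate buffer with 137 mM NaCl, 2.7 mM KCl, 0.05% P20 and 2% DMSO. Kinetic and affinity constants came from a 1:1 binding fit.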

Row | Kd [nM] | SMILES
1 | 0.098 | C[C@@H](NC(=O)CCCCCNC(=O)CN1CCN(CC(=O)O)CCN(CC(=O)O)CCN(CC(=O)O)CC1)C(=O)N[C@@H](CO)C(=O)N[C@@H](CC(=O)O)C(=O)N[C@H]1CSSC[C@@H](C(=O)N2CCC[C@@]2(C)C(=O)N[C@@H](Cc2ccccc2)C(=O)N[C@@H](CC(=O)O)C(N)=O)NC(=O)[C@H](CC(N)=O)NC(=O)[C@H](Cc2ccc3ccccc3c2)NC(=O)[C@H](CC2CCNCC2)NC(=O)[C@H](CC(C)(C)C)NC(=O)[C@H](Cc2cccc3ccccc23)NC1=O [compound 177, DOTA-PEG4-S-D-C(3)-(1Nal)-(t-Bu-Ala)-[3-(4-piperidinyl)-Ala]-(2Nal)-N-C(3)-(aMe-P)-F -D-CONH2] ({DOTA-Ahx}-[dA]SDC[1Nal][tBuAla][Ala(piperidin-4-yl)][2Nal]NC[αMeP]FD-NH2; disulfide 4-10)
2 | 2.43 | CC(=O)N[C@@H](CO)C(=O)N[C@@H](CC(=O)O)C(=O)N[C@H]1CSSC[C@@H](C(=O)N2CCC[C@@]2(C)C(=O)N[C@@H](Cc2ccccc2)C(=O)N[C@@H](CC(=O)O)C(=O)N[C@H](CCCCNC(=O)CN2CCN(CC(=O)O)CCN(CC(=O)O)CCN(CC(=O)O)CC2)C(N)=O)NC(=O)[C@H](CC(N)=O)NC(=O)[C@H](Cc2ccc3ccccc3c2)NC(=O)[C@H](CC2CCNCC2)NC(=O)[C@H](CC(C)(C)C)N(C)C(=O)[C@H](Cc2cccc3ccccc23)NC1=O [compound 178, Ac-S-D-C(3)-(1Nal)-(NMe-Tba)-[3-(4-piperidinyl)-Ala]-(2Nal)-N-C(3)-(aMe-P)-F -D-[D-Lys(DOTA)]-NH2] (Ac-SDC[1Nal][NMetBuAla][Ala(piperidin-4-yl)][2Nal]NC[αMeP]FD[dK](DOTA)-NH2; disulfide 3-9)
3 | > 30 | CC(=O)N[C@@H](CO)C(=O)N[C@@H](CC(=O)O)C(=O)N[C@H]1CSSC[C@@H](C(=O)N2CCC[C@@]2(C)C(=O)N[C@@H](Cc2ccccc2)C(=O)N[C@@H](CC(=O)O)C(=O)N[C@H](CCCCNC(=O)CN2CCN(CC(=O)O)CCN(CC(=O)O)CCN(CC(=O)O)CC2)C(N)=O)NC(=O)[C@H](CC(N)=O)NC(=O)[C@H](Cc2ccc3ccccc3c2)NC(=O)[C@H](CC2CCNCC2)NC(=O)[C@H](C2CCCCC2)N(C)C(=O)[C@H](Cc2cccc3ccccc23)NC1=O [compound 179, Ac-S-D-C(3)-(1Nal)-(NMe-Chg)-[3-(4-piperidinyl)-Ala]-(2Nal)-N-C(3)-(aMe-P)-F -D-[D-Lys(DOTA)]-NH2] (Ac-SDC[1Nal][NMeChg][Ala(piperidin-4-yl)][2Nal]NC[αMeP]FD[dK](DOTA)-NH2; disulfide 3-9)
4 | > 30 | CC(=O)N[C@@H](CC1CCNCC1)C(=O)N[C@@H](CO)C(=O)N[C@@H](CC(=O)O)C(=O)N[C@H]1CSSC[C@@H](C(=O)N2CCC[C@@]2(C)C(=O)N[C@@H](Cc2ccccc2)C(=O)N[C@@H](CC(=O)O)C(N)=O)NC(=O)[C@H](CC(N)=O)NC(=O)[C@H](Cc2ccc3ccccc3c2)NC(=O)[C@H](Cc2ccc(CNC(=O)CN3CCN(CC(=O)O)CCN(CC(=O)O)CCN(CC(=O)O)CC3)cc2)NC(=O)[C@H](CC(C)(C)C)N(C)C(=O)[C@H](Cc2cccc3ccccc23)NC1=O [compound 180, Ac-[3-(4-piperidinyl)-Ala]-S-D-C(3)-(1Nal)-(NMe-Tba)-[PAF(DOTA)]-(2Nal)-N-C(3)-(aMe-P)-F -D-CONH2] (Ac-[Ala(piperidin-4-yl)]SDC[1Nal][NMetBuAla][Phe(4-CH2NH2)](DOTA)[2Nal]NC[αMeP]FD-NH2; disulfide 4-10)
5 | > 30 | CC(=O)N[C@@H](CC1CCNCC1)C(=O)N[C@@H](CO)C(=O)N[C@@H](CC(=O)O)C(=O)N[C@H]1CSSC[C@@H](C(=O)N2CCC[C@@]2(C)C(=O)N[C@@H](Cc2ccccc2)C(=O)N[C@@H](CC(=O)O)C(N)=O)NC(=O)[C@H](CC(N)=O)NC(=O)[C@H](Cc2ccc3ccccc3c2)NC(=O)[C@H](Cc2ccc(CNC(=O)CN3CCN(CC(=O)O)CCN(CC(=O)O)CCN(CC(=O)O)CC3)cc2)NC(=O)[C@H](C2CCCCC2)N(C)C(=O)[C@H](Cc2cccc3ccccc23)NC1=O [compound 181, Ac-[3-(4-piperidinyl)-Ala]-S-D-C(3)-(1Nal)-(NMe-Chg)-[PAF(DOTA)]-(2Nal)-N-C(3)-(aMe-P)-F -D-CONH2] (Ac-[Ala(piperidin-4-yl)]SDC[1Nal][NMeChg][Phe(4-CH2NH2)](DOTA)[2Nal]NC[αMeP]FD-NH2; disulfide 4-10)
6 | 5.39 | CC(=O)N[C@H](C(=O)N[C@@H](CO)C(=O)N[C@@H](CC(=O)O)C(=O)N[C@H]1CSSC[C@@H](C(=O)N2CCC[C@@]2(C)C(=O)N[C@@H](Cc2ccccc2)C(=O)N[C@@H](CC(=O)O)C(=O)N[C@H](CCCCNC(=O)CN2CCN(CC(=O)O)CCN(CC(=O)O)CCN(CC(=O)O)CC2)C(N)=O)NC(=O)[C@H](CC(N)=O)NC(=O)[C@H](Cc2ccc3ccccc3c2)NC(=O)[C@H](CC2CCNCC2)NC(=O)[C@H](CC(C)(C)C)N(C)C(=O)[C@H](Cc2cccc3ccccc23)NC1=O)C1CCCCC1 [compound 182, Ac-Chg-S-D-C(3)-(1Nal)-(NMe-Tba)-[3-(4-piperidinyl)-Ala]-(2Nal)-N-C(3)-(aMe-P)-F -D-[D-Lys(DOTA)]-NH2] (Ac-[Chg]SDC[1Nal][NMetBuAla][Ala(piperidin-4-yl)][2Nal]NC[αMeP]FD[dK](DOTA)-NH2; disulfide 4-10)
7 | > 30 | CC(=O)N[C@H](C(=O)N[C@@H](CO)C(=O)N[C@@H](CC(=O)O)C(=O)N[C@H]1CSSC[C@@H](C(=O)N2CCC[C@@]2(C)C(=O)N[C@@H](Cc2ccccc2)C(=O)N[C@@H](CC(=O)O)C(=O)N[C@H](CCCCNC(=O)CN2CCN(CC(=O)O)CCN(CC(=O)O)CCN(CC(=O)O)CC2)C(N)=O)NC(=O)[C@H](CC(N)=O)NC(=O)[C@H](Cc2ccc3ccccc3c2)NC(=O)[C@H](CC2CCNCC2)NC(=O)[C@H](C2CCCCC2)N(C)C(=O)[C@H](Cc2cccc3ccccc23)NC1=O)C1CCCCC1 [compound 183, Ac-Chg-S-D-C(3)-(1Nal)-(NMe-Chg)-[3-(4-piperidinyl)-Ala]-(2Nal)-N-C(3)-(aMe-P)-F -D-[D-Lys(DOTA)]-NH2] (Ac-[Chg]SDC[1Nal][NMeChg][Ala(piperidin-4-yl)][2Nal]NC[αMeP]FD[dK](DOTA)-NH2; disulfide 4-10)
8 | > 30 | CC(=O)N[C@H](C(=O)N[C@@H](CO)C(=O)N[C@@H](CC(=O)O)C(=O)N[C@H]1CSSC[C@@H](C(=O)N2CCC[C@@]2(C)C(=O)N[C@@H](Cc2ccccc2)C(=O)N[C@@H](CC(=O)O)C(=O)N[C@H](CCCCNC(=O)CN2CCN(CC(=O)O)CCN(CC(=O)O)CCN(CC(=O)O)CC2)C(N)=O)NC(=O)[C@H](CC(N)=O)NC(=O)[C@H](Cc2c[nH]c3c(C)cccc23)NC(=O)[C@H](CC2CCNCC2)NC(=O)[C@H](CC(C)(C)C)N(C)C(=O)[C@H](Cc2cccc3ccccc23)NC1=O)C1CCCCC1 [compound 184, Ac-Chg-S-D-C(3)-(1Nal)-(NMe-Tba)-[3-(4-piperidinyl)-Ala]-(7Me-W)-N-C(3)-(aMe-P)-F -D-[D-Lys(DOTA)]-NH2] (Ac-[Chg]SDC[1Nal][NMetBuAla][Ala(piperidin-4-yl)][Trp(7-Me)]NC[αMeP]FD[dK](DOTA)-NH2; disulfide 4-10)
9 | > 30 | CC(=O)N[C@H](C(=O)N[C@@H](CO)C(=O)N[C@@H](CC(=O)O)C(=O)N[C@H]1CSSC[C@@H](C(=O)N2CCC[C@@]2(C)C(=O)N[C@@H](Cc2ccccc2)C(=O)N[C@@H](CC(=O)O)C(=O)N[C@H](CCCCNC(=O)CN2CCN(CC(=O)O)CCN(CC(=O)O)CCN(CC(=O)O)CC2)C(N)=O)NC(=O)[C@H](CC(N)=O)NC(=O)[C@H](Cc2c[nH]c3c(C)cccc23)NC(=O)[C@H](CC2CCNCC2)NC(=O)[C@H](C2CCCCC2)N(C)C(=O)[C@H](Cc2cccc3ccccc23)NC1=O)C1CCCCC1 [compound 185, Ac-Chg-S-D-C(3)-(1Nal)-(NMe-Chg)-[3-(4-piperidinyl)-Ala]-(7Me-W)-N-C(3)-(aMe-P)-F -D-[D-Lys(DOTA)]-NH2] (Ac-[Chg]SDC[1Nal][NMeChg][Ala(piperidin-4-yl)][Trp(7-Me)]NC[αMeP]FD[dK](DOTA)-NH2; disulfide 4-10)
10 | > 30 | CC(=O)N[C@H](C(=O)N[C@@H](CO)C(=O)N[C@@H](CC(=O)O)C(=O)N[C@H]1C/C=C/C[C@@H](C(=O)N2CCC[C@@]2(C)C(=O)N[C@@H](Cc2ccccc2)C(=O)N[C@@H](CC(=O)O)C(=O)N[C@H](CCCCNC(=O)CN2CCN(CC(=O)O)CCN(CC(=O)O)CCN(CC(=O)O)CC2)C(N)=O)NC(=O)[C@H](CC(N)=O)NC(=O)[C@H](Cc2ccc3ccccc3c2)NC(=O)[C@H](CC2CCNCC2)NC(=O)[C@H](CC(C)(C)C)N(C)C(=O)[C@H](Cc2cccc3ccccc23)NC1=O)C1CCCCC1 [compound 186, Ac-Chg-S-D-AllyG(4)-(1Nal)-(NMe-Tba)-[3-(4-piperidinyl)-Ala]-(2Nal)-N-AllyG(4)-(aMe-P)-F -D-[D-Lys(DOTA)]-NH2] (Ac-[Chg]SD[AllylGly][1Nal][NMetBuAla][Ala(piperidin-4-yl)][2Nal]N[AllylGly][αMeP]FD[dK](DOTA)-NH2; staple (E) 4-10)
